In ChEMBL document CHEMBL6092212, “Discovery of novel substituted (Z)-N'-hydroxy-3-(3-phenylureido)benzimidamide derivatives as multifunctional molecules targeting pathological hallmarks of Alzheimer's disease” (Eur J Med Chem, 2024):
pIC50: −log10 of the molar value.

Assays:
Cholinesterase = Cholinesterase (Equus caballus, UniProt P81908); assay: Inhibition of equine BChE using BTCI as substrate preincubated for 30 mins followed by substrate addition measured after 30 mins by Ellman's method
Acetylcholinesterase [1] = target: T1, Acetylcholinesterase (Homo sapiens, UniProt P22303); assay: Inhibition of human AChE using ATCI as substrate preincubated for 30 mins followed by substrate addition measured after 30 mins by Ellman's method
T1 sequence (P22303 whole entry): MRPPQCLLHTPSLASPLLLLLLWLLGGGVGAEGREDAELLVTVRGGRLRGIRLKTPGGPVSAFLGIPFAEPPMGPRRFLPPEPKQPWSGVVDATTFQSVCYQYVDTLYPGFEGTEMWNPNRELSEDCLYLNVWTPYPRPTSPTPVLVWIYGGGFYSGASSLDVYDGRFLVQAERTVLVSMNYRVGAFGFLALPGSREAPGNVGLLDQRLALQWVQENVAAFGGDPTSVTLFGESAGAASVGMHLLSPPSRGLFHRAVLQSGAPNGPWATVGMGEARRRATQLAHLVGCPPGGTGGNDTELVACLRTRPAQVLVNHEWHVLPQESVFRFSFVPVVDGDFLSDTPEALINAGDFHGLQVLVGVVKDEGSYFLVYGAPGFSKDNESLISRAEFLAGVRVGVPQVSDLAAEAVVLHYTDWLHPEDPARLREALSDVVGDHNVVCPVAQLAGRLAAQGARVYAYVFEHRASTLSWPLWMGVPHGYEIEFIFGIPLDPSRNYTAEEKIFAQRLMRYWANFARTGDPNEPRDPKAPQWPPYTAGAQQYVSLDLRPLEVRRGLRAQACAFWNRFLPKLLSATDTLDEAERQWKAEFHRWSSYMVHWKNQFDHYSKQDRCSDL

Acetylcholinesterase [2] = target: T1, Acetylcholinesterase; assay: Inhibition of human AChE using ATCI as substrate preincubated for 30 mins followed by substrate addition measured after 30 mins by Ellman's method relative to control; design: concentration or dose not given beside the values; settings: time 60.0 min
[3] = target: Cholinesterase (Equus caballus) (UniProt P81908); assay: Inhibition of equine BChE using BTCI as substrate preincubated for 30 mins followed by substrate addition measured after 30 mins by Ellman's method relative to control
Sequence of Cholinesterase (Equus caballus) (P81908 whole entry): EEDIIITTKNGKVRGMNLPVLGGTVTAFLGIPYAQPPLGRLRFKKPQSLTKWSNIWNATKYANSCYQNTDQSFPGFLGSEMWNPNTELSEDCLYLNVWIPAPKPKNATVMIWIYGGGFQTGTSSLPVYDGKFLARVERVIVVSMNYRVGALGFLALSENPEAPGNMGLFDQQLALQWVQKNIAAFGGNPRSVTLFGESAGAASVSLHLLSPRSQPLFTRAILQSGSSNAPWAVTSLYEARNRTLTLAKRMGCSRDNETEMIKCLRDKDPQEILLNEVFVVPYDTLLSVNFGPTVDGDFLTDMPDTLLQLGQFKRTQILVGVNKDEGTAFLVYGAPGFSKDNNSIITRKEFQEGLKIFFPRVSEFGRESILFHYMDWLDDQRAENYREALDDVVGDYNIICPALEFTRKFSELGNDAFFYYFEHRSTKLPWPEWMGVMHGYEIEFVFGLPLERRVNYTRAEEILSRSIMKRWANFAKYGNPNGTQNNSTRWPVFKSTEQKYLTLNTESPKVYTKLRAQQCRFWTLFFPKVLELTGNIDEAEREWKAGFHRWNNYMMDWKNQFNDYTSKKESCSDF

[4] = Antioxidant activity assessed as DPPH radical scavenging activity at 20 to 200 uM incubated for 30 mins by absorbance based analysis relative to control; format: functional; settings: dose 20-200 µM
[5] = Antioxidant activity assessed as inhibition of DPPH radical scavenging activity incubated for 30 mins by absorbance based analysis; format: functional

Sequence of Cholinesterase (P81908 whole entry): as above

`NC(=NO)c1cccc(NC(=O)Nc2cccc(Cl)c2)c1` showed a pIC50 (Cholinesterase) of 4.73 and a pIC50 (Acetylcholinesterase [1]) of 4.76.

`N/C(=N\O)c1ccc(NC(=O)Nc2ccc(Cl)cc2)cc1` gave a pIC50 (Cholinesterase) of 4.83 and a pIC50 (Acetylcholinesterase [1]) of 5.12.

`Cc1ccccc1NC(=O)Nc1ccc(/C(N)=N/O)cc1` gave a pIC50 (Cholinesterase) of 4.77 and a pIC50 (Acetylcholinesterase [1]) of 5.07.

`NC(=NO)c1cccc(NC(=O)Nc2ccc([N+](=O)[O-])cc2)c1` gave a pIC50 (Cholinesterase) of 4.75 and a pIC50 (Acetylcholinesterase [1]) of 4.79.

`N/C(=N\O)c1ccc(NC(=O)Nc2ccc3ncccc3c2)cc1` showed a pIC50 (Cholinesterase) of 4.88 and a pIC50 (Acetylcholinesterase [1]) of 5.16.

Work on `N/C(=N\O)c1cccc(NC(=O)Nc2ccccc2Cl)c1` yielded an inhibition (Acetylcholinesterase [2]) of 49.2%.

`NC(=NO)c1cccc(NC(=O)Nc2ccccc2C(F)(F)F)c1` gave a pIC50 (Cholinesterase) of 4.77 and a pIC50 (Acetylcholinesterase [1]) of 4.74.

`COc1cccc(NC(=O)Nc2ccc(/C(N)=N/O)cc2)c1` showed a pIC50 (Cholinesterase) of 4.74 and a pIC50 (Acetylcholinesterase [1]) of 5.04.

`NC(=NO)c1cccc(NC(=O)Nc2ccc3ncccc3c2)c1` gave a pIC50 (Cholinesterase) of 4.81 and a pIC50 (Acetylcholinesterase [1]) of 5.25.

Compound `Cc1ccc(NC(=O)Nc2cccc(/C(N)=N/O)c2)cc1` has a pIC50 (Cholinesterase) of 4.75 and an inhibition (Acetylcholinesterase [2]) of 39.9%.

Work on `N/C(=N\O)c1cccc(NC(=O)Nc2ccccc2Br)c1` yielded an inhibition [3] of 49.2% and an inhibition (Acetylcholinesterase [2]) of 47.7%.

With `COc1ccc(NC(=O)Nc2cccc(/C(N)=N/O)c2)cc1` the pIC50 (Cholinesterase) was 4.75 and the pIC50 (Acetylcholinesterase [1]) was 4.79.

For `N/C(=N\O)c1cccc(NC(=O)Nc2cccc(C(F)(F)F)c2)c1`, the pIC50 (Cholinesterase) was 4.98 and the pIC50 (Acetylcholinesterase [1]) was 4.77.

With `NC(=NO)c1cccc(NC(=O)Nc2ccc(Br)cc2)c1` the pIC50 (Cholinesterase) was 4.84 and the pIC50 (Acetylcholinesterase [1]) was 4.77.

For `O=c1c(O)c(-c2ccc(O)c(O)c2)oc2cc(O)cc(O)c12` [QUERCETIN], the Activity [4] was 79.4% and the pIC50 [5] was 5.49.

With `N/C(=N\O)c1cccc(NC(=O)Nc2ccc(Cl)cc2)c1` the pIC50 (Cholinesterase) was 4.78 and the pIC50 (Acetylcholinesterase [1]) was 4.85.

In the case of `COc1ccccc1NC(=O)Nc1cccc(/C(N)=N/O)c1`, the pIC50 (Cholinesterase) was 4.82 and the inhibition (Acetylcholinesterase [2]) was 49%.

`Cc1cccc(NC(=O)Nc2cccc(/C(N)=N/O)c2)c1` gave a pIC50 (Cholinesterase) of 4.98 and an inhibition (Acetylcholinesterase [2]) of 42.5%.

With `N/C(=N\O)c1cccc(NC(=O)Nc2ccccc2F)c1` the pIC50 (Cholinesterase) was 4.95 and the pIC50 (Acetylcholinesterase [1]) was 4.73.

In the case of `Cc1ccccc1NC(=O)Nc1cccc(/C(N)=N/O)c1`, the pIC50 (Cholinesterase) was 4.81 and the pIC50 (Acetylcholinesterase [1]) was 4.76.

In the case of `N/C(=N\O)c1cccc(NC(=O)Nc2ccc3ncccc3c2)c1`, the Activity [4] was 42.9% and the pIC50 [5] was 4.74.

`N/C(=N\O)c1cccc(NC(=O)NCCc2c[nH]c3ccc(Cl)cc23)c1` showed a pIC50 (Cholinesterase) of 5.51 and a pIC50 (Acetylcholinesterase [1]) of 5.94.

`N/C(=N\O)c1cccc(NC(=O)Nc2ccc3[nH]ccc3c2)c1` showed a pIC50 (Cholinesterase) of 4.80, an Activity [4] of 34.2% and a pIC50 [5] of 4.64. For the same compound, the pIC50 (Acetylcholinesterase [1]) was 5.20.

`N/C(=N\O)c1cccc(NC(=O)Nc2ccc(O)cc2)c1` showed a pIC50 (Cholinesterase) of 4.84 and a pIC50 (Acetylcholinesterase [1]) of 4.79.

Work on `N/C(=N\O)c1ccc(NC(=O)Nc2cccc(F)c2)cc1` yielded a pIC50 (Cholinesterase) of 5.09 and a pIC50 (Acetylcholinesterase [1]) of 5.52.

In the case of `COc1cccc(NC(=O)Nc2cccc(/C(N)=N/O)c2)c1`, the pIC50 (Cholinesterase) was 4.89 and the pIC50 (Acetylcholinesterase [1]) was 4.89.

Work on `NC(=NO)c1cccc(NC(=O)Nc2ccc(F)cc2)c1` yielded a pIC50 (Cholinesterase) of 4.75 and a pIC50 (Acetylcholinesterase [1]) of 5.12.

`N/C(=N\O)c1cccc(NC(=O)Nc2ccc(C(F)(F)F)cc2)c1` showed an inhibition [3] of 47% and a pIC50 (Acetylcholinesterase [1]) of 4.91.

`NC(=NO)c1cccc(NC(=O)Nc2cccc(O)c2)c1` showed a pIC50 (Cholinesterase) of 4.81 and a pIC50 (Acetylcholinesterase [1]) of 4.84.

Work on `NC(=NO)c1cccc(NC(=O)Nc2ccccc2Cl)c1` yielded a pIC50 (Cholinesterase) of 4.81.

`N/C(=N\O)c1cccc(NC(=O)Nc2cccc(Br)c2)c1` showed a pIC50 (Cholinesterase) of 5.06 and a pIC50 (Acetylcholinesterase [1]) of 4.84.

Work on `N/C(=N\O)c1ccc(NC(=O)Nc2ccc3[nH]ccc3c2)cc1` yielded a pIC50 (Cholinesterase) of 4.90 and a pIC50 (Acetylcholinesterase [1]) of 5.13.

For `NC(=NO)c1cccc(NC(=O)Nc2cccc([N+](=O)[O-])c2)c1`, the pIC50 (Cholinesterase) was 4.79 and the pIC50 (Acetylcholinesterase [1]) was 4.92.

Compound `N/C(=N\O)c1cccc(NC(=O)Nc2ccccc2)c1` has a pIC50 (Cholinesterase) of 4.76 and an inhibition (Acetylcholinesterase [2]) of 47.9%.

For `NC(=NO)c1ccc(NC(=O)Nc2cccc(Br)c2)cc1`, the pIC50 (Cholinesterase) was 5.12 and the pIC50 (Acetylcholinesterase [1]) was 5.19.

Work on `N/C(=N\O)c1cccc(NC(=O)NCCc2c[nH]c3ccccc23)c1` yielded a pIC50 (Cholinesterase) of 5.41 and a pIC50 (Acetylcholinesterase [1]) of 5.81.
